Like-named read-outs stand apart in the source and are kept apart here. Starred links: 1 amine or outer side, 2 acyl side, 3 side chain; linkers in the order of their positions; H or OH if unused. Positions of bridges follow the written chain, without caps; N, C: chain ends. Non-standard residues stand in square brackets, D forms with d. Residues, ends and D or L forms follow the SMILES beside them. *: point of attachment. TBMB = c1c(C[*:1])cc(C[*:3])cc1C[*:2]; Palmitoyl = CCCCCCCCCCCCCCCC(=O)*; Benzoyl(3-I) = O=C(c1cccc(I)c1)*; 4Abz = Nc1ccc(C(=O)O)cc1
Key:
[1] = Biodistribution in U-87 MG tumor-bearing mice; type: in vivo, BALB/c nu-nu mice; details: mouse, total radioactivity, 2 h post-administration, tumor-bearing mice, comparator value, no method or n printed for this probe
Protocol: Animal experiments were performed in compliance with institutional animal care regulations, with the study protocol approved by the Experimental Animal Committee of Osaka Medical and Pharmaceutical University (Approval Numbers: 21–76, 22–76, and 23–76). Four-week-old male BALB/c nu-nu mice (Japan SLC, Shizuoka, Japan) were housed under a 12 h light/12 h dark cycle with free access to food and water. Tumor-bearing mice were established by suspending U-87 MG cells (2 × 10^6 cells/mouse) in PBS(–) and subcutaneously injecting 100 μL of the suspension into the right hind leg. For co-implantation models, A549 cells (2 × 10^6 cells/mouse) were suspended in PBS(–) and inoculated (100 μL) into the left hind leg of the same mice already inoculated with U-87 MG cells. Mice with tumor size approximately 10 mm in diameter, 4–5 weeks after inoculation, were used for biodistribution studies. Animals in which either tumor was not viable were excluded from the experiment.
U-87 MG-bearing mice (n = 42, 8–9 weeks old; 22–27 g) were randomly assigned into groups and administered [^125I]bcRGDpal or [^125I]bcRGDiba via intravenous injection (37 kBq in 100 μL of PBS containing 0.1% Tween 80 (PBS-T80)). At 5 min, 30 min, 1 h, 2 h, 6 h, 12 h, or 24 h post-injection, the mice were euthanized (n = 3 per time point). The heart, kidneys, liver, brain, pancreas, spleen, lung, small intestine, large intestine, muscle, skin, stomach, bone, and tumors were excised. Each organ’s weight and radioactivity were measured by a NaI well-type scintillation counter, and the % ID/g was calculated. To investigate the correlation between integrin expression and radioactivity accumulation, biodistribution at 2 h after administration of [^125I]bcRGDpal or [^125I]bcRGDiba was assessed in A549 and U-87 MG co-implantation mice (n = 5) using the same procedure. Additionally, co-implantation mice were injected with [^125I]bcRGDdimer (37 kBq/100 μL PBS-T80) and euthanized at 30 min, 2 h, and 4 h post-injection (n = 4 per time point), and % ID/g values were calculated as described above. The minimum sample size needed for the biodistribution study in U-87 MG-bearing mice was calculated using G Power software version 3.1.9.7. The calculation was based on a two-tailed test, with an effect size of 3.9, a significance level (α) of 0.05, and a statistical power (1 − β) of 0.8. […] The minimum required sample size for the biodistribution study in A549 and U-87 MG co-implantation mice was also calculated to be four animals per group (effect size = 2.5, α = 0.05, 1 − β = 0.8). To guarantee objective results, the experiment was carried out in a blinded manner. Specifically, drug administration and radioactivity measurements were conducted by different investigators to eliminate potential bias.

[2] = Albumin binding, size-exclusion spin column elution after incubation with mouse plasma; type: in vitro ADME; details: 37 kBq in 50 μL PBS(–) incubated 37 °C 10 min with 200 μL mouse plasma (male ddY); Sephadex G-50 Fine spin column, 2000 rpm 2 min; γ-counter; eluted/added radioactivity × 100
Protocol: To assess albumin binding, mouse plasma was obtained by centrifugation of whole blood from male ddY mice (9 weeks old). [^125I]bcRGD, [^125I]bcRGDpal, [^125I]bcRGDiba, or [^125I]bcRGDdimer (37 kBq) in 50 μL PBS(–) was incubated at 37 °C for 10 min with 200 μL of PBS(–), mouse plasma, or human serum albumin (HSA, 45 mg/mL in PBS(–); Wako Pure Chemical Industries, Osaka, Japan). The mixtures were applied to gel filtration spin columns (Sephadex G-50 Fine; Cytiva, Tokyo, Japan), centrifuged (2000 rpm, 2 min), and radioactivity in the eluted fraction was measured with a γ-counter. The high molecular weight fraction was calculated as the elution ratio = (radioactivity in elution)/(added radioactivity) × 100 (%).

[3] = Octanol–water distribution coefficient (log D); type: physicochemical; details: shake-flask 1-octanol/PBS(–) pH 7.4, 1.0 mL each (1:1), 40 kBq, vortexed 2 min, centrifuged 5000 rpm 5 min, radioactivity by γ-counter, mean of n = 4
Protocol: For log D determination, [^125I]bcRGD, [^125I]bcRGDpal, [^125I]bcRGDiba, or [^125I]bcRGDdimer (40 kBq) was dissolved in 1.0 mL PBS(–) (pH 7.4) and mixed with 1.0 mL 1-octanol (1:1, v/v). The mixture was vortexed for 2 min and centrifuged at 5000 rpm for 5 min. Radioactivity in 0.5 mL of each phase was measured using a γ-counter, and log D values were calculated based on the radioactivity distribution (n = 4).

integrin αVβ3 / αVβ5 = details: cited from earlier work
Text: A radiolabeled probe based on this bicyclic peptide, [^125I]bcRGD, was synthesized and shown to selectively accumulate in αVβ3-expressing cancer cells and xenograft models in mice. However, like many l ...

human serum albumin = target: T1, human serum albumin (human, UniProt P02768 25-609); test: SEC; [^125I]-peptide (37 kBq in 50 μL PBS(-)) with 200 μL HSA (45 mg/mL in PBS(-)), 37 °C, 10 min; Sephadex G-50 Fine gel filtration spin column, 2000 rpm, 2 min; radioactivity in the eluted high molecular weight fraction as % of that added; details: both partners purified
T1 construct: human serum albumin, 45 mg/mL in PBS(-); also called HSA; source: bought: Wako Pure Chemical Industries

## CC(=O)N[C@@H](CCCCNC(=O)c1cccc(I)c1)C(=O)N1CCC[C@H]1C(=O)N1CCC[C@H]1C(=O)N1CCC[C@H]1C(=O)N[C@@H](CO)C(=O)NCC(=O)Nc1ccc(C(=O)N[C@@H](CO)C(=O)NCC(=O)N[C@H]2CSCc3cc4cc(c3)CSC[C@@H](NC(=O)[C@H](CCC(N)=O)NC(=O)[C@@H]3CCCN3C(=O)[C@H](Cc3c[nH]cn3)NC2=O)C(=O)N[C@@H](CCCNC(=N)N)C(=O)NCC(=O)N[C@@H](CC(=O)O)C(=O)N[C@@H](C(N)=O)CSC4)cc1 [[^125I]bcRGD, reference compound] (Ac-K(Benzoyl(3-I))PPPSG[4Abz]SGCHPQ[dC]RGD[dC]-NH2; linker 10-14-18 via TBMB)
[1]; U-87 MG tumor, read-out: Tumor-accumulated radioactivity (U-87 MG)
  tissue uptake at 2 h: 0.7 %ID/g
[1]; blood, read-out: Blood radioactivity level
  tissue uptake at 2 h: 0.3 %ID/g
[2]
  Elution rate from size-exclusion resin (high molecular weight fraction), mouse plasma: 2%
[3]
  logD: -2.02

## cilengitide
Integrin αVβ3 / αVβ5
  αVβ3/αVβ5 selectivity ratio (ratio of corresponding IC50 values): 4.7

## cyclo-(RGDfK)
Integrin αVβ3 / αVβ5
  αVβ3/αVβ5 selectivity ratio (ratio of corresponding IC50 values): 0.2

## Palmitoyl-K((125I)3‑iodobenzoyl)PPPSG[4Abz]SGCHPQ[dC]RGD[dC]-NH2 (linker 10-14-18 via TBMB (inferred)) [[^125I]bcRGDpal]
Human serum albumin
  elution ratio (high molecular weight fraction) with HSA: 80%

## {4‑(p-iodophenyl)butyryl}-K((125I)3‑iodobenzoyl)PPPSG[4Abz]SGCHPQ[dC]RGD[dC]-NH2 (linker 10-14-18 via TBMB (inferred)) [[^125I]bcRGDiba]
Human serum albumin
  elution ratio (high molecular weight fraction) with HSA: 60%

Source: article PMC12030627, “Radioiodinated Bicyclic RGD Peptide Derivatives for Enhanced Tumor Accumulation” (Pharmaceuticals, 2025)
